Results: patent US20120165325A1, “Stable forms of N-(2,6-Dimethyl-4-morpholin-4-yl-phenyl)-3,3-dimethyl-butyramide” (H. Lundbeck A/S, priority 2009, published 2012)

Legend:
DA neurons in the VTA = assay: Electrophysiology: spontaneous DA cell firing in the VTA of anaesthetised rats; format: in vivo, rat; conditions: mean ± SEM
Protocol: Subjects. Male Wistar rats (Harlan, The Netherlands) weighing 270-340 g were used. The animals were housed under a 12-hr light/dark cycle under controlled conditions for regular in-door temperature (21±2° C.) and humidity (55±5%) with food and tap water available ad libitum.
Experimental procedure. The rats were anaesthetised with an intraperitoneal injection of chloral hydrate (400 mg/kg). A femoral vein catheter was then inserted for supplementary anaesthetic injections (100 mg/kg) and drug administration. Animals were then mounted in a stereotaxic frame, the skull was exposed, and a hole (0.5×0.5 cm) was drilled above the ventral tegmental area. Extracellular single-cell recordings were performed using electrodes pulled from glass capillaries and filled with 2% Pontamine Sky Blue in 2 M NaCl. The tip of the electrode was broken under microscopic control, yielding an impedance of 2.0-8.0 MΩ a 135 Hz. The electrode was then lowered into the brain, using a hydraulic microdrive, aimed at the following coordinates: 5.5-5.0 mm posterior to Bregma; 0.5-0.9 mm lateral to the midline. Extracellular action potentials were amplified, discriminated and monitored on an oscilloscope and an audiomonitor. Discriminated spikes were collected and analysed using Spike 2 software (Cambridge Electronic Design Ltd., Cambridge, UK) on a PC-based system connected to a CED 1401 interface unit (Cambridge Electronic Design Ltd.). Presumed dopaminergic neurons were typically found 7.0-8.5 mm beneath the brain surface and were characterised by (1) a slow and irregular firing pattern (0.5-10 Hz), and (2) triphasic action potentials with a predominant positive component, a negative component followed by a minor positive component, with an overall duration >2.5 ms (Bunney et al. 1973, J. Pharmacol. Exp. They., 185, 560-571.).
Administration of compounds. Once a stable basal firing rate was obtained, cumulated doses of N-(2,6-Dimethyl-4-morpholin-4-yl-phenyl)-3,3-dimethyl-butyramide ([…]; volume range 0.12-1.0 ml/kg) were administered i.v., each injection being separated by at least 3 min. These i.v. doses match the s.c. dose range of 0-10 mg/kg.
Statistical analysis. Drug effects were assessed by statistical comparison of the mean firing rate calculated from the 2-3 min period immediately before the first drug administration (baseline) to the mean firing rate calculated from at least 60 s at the maximal drug effect. Data were analysed statistically by a one-way ANOVA followed by Student-Newman-Keuls posthoc test. A p-value less than 0.05 was considered significant.

Male Wistar rats = assay: Conditioned avoidance response; format: in vivo, rat; conditions: for % inhibition of avoidance (Std. dev.) Relative to baseline: rats
Protocol: Subjects. Male Wistar rats (Taconic, Denmark) weighing 150 g at the beginning of the study were used. The rats were housed in pairs and maintained on a 12 h light/dark cycle (lights on 06:00). The animals were fed once daily (approx. 6 pellets/rat) in order to keep the rats at 80% of their free-feeding weight. Water was available ad libitum. Temperature (21±1° C.) and relative humidity (55±5%) were automatically controlled.
Experimental procedure. Conditioned avoidance testing was conducted using four automated shuttle-boxes (ENV-010M, MED-Associates) each placed in a sound-attenuated chamber. Each box was divided into two compartments by a partition with an opening. The position of the animal and crossings from one compartment to the other were detected by two photocells placed on either side of the dividing wall. Upon presentation of the conditioned stimuli (CS), tone and light, the animals have 10 s to cross to the other compartment of the shuttle-box in order to turn the CS off (end the trial) and avoid the appearance of the unconditioned stimulus (UCS). If the rat remained in the same compartment for more than 10 s, the UCS is presented as 0.5 mA scrambled foot-shocks until escape was performed or 10 s in maximal duration. The following behavioural variables were evaluated: avoidance (response to CS within 10 s); escape (reponse to CS+UCS); escape failures (failure to respond); intertrial crosses and locomotor activity. The rats were habituated to the shuttle-box 3 min before each test session. During training each test session consists of 30 trials with intertrial intervals varying randomly between 20 s and 30 s. Training was carried until the rats display an avoidance of 80% or more, on 3 consecutive days. […]
Statistical analyses. The effects of compounds on avoidance and escape failure behaviours were statistically evaluated by means of a two-way repeated measures ANOVA followed by post hoc comparisons (Student-Newman-Keuls Method) when appropriate. […]

For `Cc1cc(N2CCOCC2)cc(C)c1NC(=O)CC(C)(C)C` [N-(2,6-dimethyl-4-morpholin-4-yl-phenyl)-3,3-dimethyl-butyramide], the “Spontaneous DA cell firing rate as a percentage of baseline firing rate” value (DA neurons in the VTA; cumulated dose 0.03 mg/kg i.v.) was 89.8 ± 4.5 (5) percentage of baseline firing rate, the “Spontaneous DA cell firing rate as a percentage of baseline firing rate” value (DA neurons in the VTA; cumulated dose 0.1 mg/kg i.v.) was 81.0 ± 4.0 (5) percentage of baseline firing rate and the “Spontaneous DA cell firing rate as a percentage of baseline firing rate” value (DA neurons in the VTA; cumulated dose 0.25 mg/kg i.v.) was 74.1 ± 6.3 (4) percentage of baseline firing rate. For the same compound, the “Spontaneous DA cell firing rate as a percentage of baseline firing rate” value (DA neurons in the VTA; cumulated dose 0.5 mg/kg i.v.) was 68.1 ± 6.0 (4) percentage of baseline firing rate, the “Spontaneous DA cell firing rate as a percentage of baseline firing rate” value (DA neurons in the VTA; cumulated dose 1.0 mg/kg i.v.) was 57.1 ± 7.9 (3) percentage of baseline firing rate and the “% inhibition of avoidance (Std. dev.) Relative to baseline” value (Male Wistar rats; 2.5 mg/kg s.c. 30 min before the test) was 1 (14) %. The % inhibition of avoidance (Std. dev.) Relative to baseline (Male Wistar rats; 5 mg/kg s.c. 30 min before the test) was 71% and the “Escape failures (effect on motor performance)” value (Male Wistar rats; 2.5 and 5 mg/kg s.c., data not shown) was “None of the tested doses caused any incidences of escape failures”.
